Source: paper PMC5407577, “Functional and genetic evidence that nucleoside transport is highly conserved in Leishmania species: Implications for pyrimidine-based chemotherapy” (International Journal for Parasitology: Drugs and Drug …, 2017)
Like-named read-outs stand apart in the source and are kept apart here.

Assays:
LmexNT1 [1] = assay type: cell-based, Leishmania mexicana; details: inhibition of 1 μM [3H]-thymidine uptake, 20 s
LmexNT1 [2] = assay: [3H]-adenosine uptake by L. mexicana promastigotes; assay type: cell-based, Leishmania mexicana; details: for Ki: inhibition of 0.05 μM [3H]-adenosine uptake, read-out: Ki
[3] = system: L. mexicana promastigotes; assay type: cell-based, Leishmania mexicana; details: for inhibition of 0.25 μM [3H]-uridine transport: maximal inhibition, uracil up to 2.5 mM (Fig. 3B)
Procedure, shortened: (§1)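 Mid-to-late log-phase parasites were washed and held at 10^8 cells ml^−1 in HEPES/bicarbonate buffer with glucose, pH 7.3, then incubated at ambient temperature with radiolabelled permeant, with or without unlabelled substrate or inhibitors. Uptake was stopped with ice-cold excess unlabelled permeant and oil centrifugation, then counted by scintillation; saturation, inhibition and time-course data fitted by regression, in triplicate.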

Lmex5F2′dURes = assay type: cell-based, Leishmania mexicana; details: 0.5 μM [3H]-uridine, 0.1 μM [3H]-adenosine, 0.25 μM [3H]-uracil
Procedure, shortened: as §1

LmexNT1 [4] = assay type: cell-based, Leishmania mexicana; details: for Ki: inhibition of 0.25 μM [3H]-uridine uptake in the presence of 1 mM uracil
Procedure, shortened: as §1

LmajUUT1 = assay: [3H]-uridine uptake by L. major promastigotes, high-affinity uracil-sensitive component; assay type: cell-based, Leishmania major; details: for Ki: inhibition of 0.25 μM [3H]-uridine uptake; for Km: double reciprocal plot, n = 3, read-out: Km (1)
Experimental: (§2) Using the standard uptake technique as described for T. brucei and Leishmania species ([Wallace et al., 2002], [Al-Salabi and De Koning, 2005], [Gudin et al., 2006]), the dose- or time-dependent uptake of radiolabeled permeants was investigated.
(§3) Briefly, cells in the mid-to-late logarithmic stage of growth were harvested by centrifugation for 10 min at 1500×g. The cells were washed twice with transport assay buffer (AB: 33 mM HEPES, 98 mM NaCl, 4.6 mM KCl, 0.55 mM CaCl2, 0.07 mM MgSO4, 5.8 mM NaH2PO4, 0.3 mM MgCl2, 23 mM NaHCO3, 14 mM glucose, pH 7.3), resuspended at a density of 10^8 cells ml^−1 in AB, and left for 20–30 min at room temperature to recover from centrifugation stress. One hundred microliters of cell suspension was incubated at ambient temperature for a predetermined time with 100 μl radiolabeled test compound, in the presence or absence of unlabeled substrate or other competitive inhibitors. The incubation was terminated by the addition of ice-cold stop solution (AB containing saturating levels, usually 10 mM, of unlabeled permeant) and centrifugation through oil for 1 min at 13,000 × g. […] Radioactivity was determined by liquid scintillation counting in a Beckman LS6000 TA scintillation counter. Saturation data, inhibition data, and time courses were plotted to equations for linear or non-linear regression (hyperbolic or sigmoid curves), as appropriate. All experiments were performed in triplicate and on at least three independent occasions.

LmajNT1 [5] = assay: [3H]-uridine uptake by L. major promastigotes, low-affinity component; assay type: cell-based, Leishmania major; details: for Ki: inhibition of 0.25 μM [3H]-uridine uptake
Experimental: as §2, §3

LmajNT1 [6] = assay: [3H]-thymidine uptake by L. major promastigotes; assay type: cell-based, Leishmania major; details: inhibition of 0.25 μM [3H]-thymidine uptake (total LmajNT1.1 + LmajNT1.2), 5 min
L. major promastigotes = assay: total [3H]-uridine uptake by L. major promastigotes; assay type: cell-based, Leishmania major
Experimental: as §2, §3

T. b. brucei strain B48 [7] = assay: [3H]-inosine uptake in non-transfected T. brucei B48; assay type: cell-based, Trypanosoma brucei brucei; details: 250 μM adenosine or 1 mM unlabeled inosine (Fig. 7B)
Experimental: as §2, §3

LmajNT2 = assay: [3H]-inosine transport by T. brucei B48 cells expressing LmajNT2; assay type: cell-based, Leishmania major; details: 250 μM adenosine
Experimental: Plasmid construction and transfection was performed according to [Munday et al. (2013)]. The nucleoside transporter genes were isolated from L. mexicana and L. major. […] The primers used in this study (Table S2) were designed to flank the gene of interest, one complementary to the sequence upstream of the 5′ end and the other complementary to the sequence downstream of the 3′ end. All of the nucleoside transporters genes were PCR-amplified from genomic DNA of each strain using the high-fidelity proof-reading polymerase Phusion (New England Biolabs) and cloned into the pGEMTeasy (Promega) vector prior to Sanger sequencing (Source BioScience, Glasgow, UK). […] After confirming the identity of each gene, the nucleoside transporter genes (LmajNT1A, LmajNT1B, LmajNT2, LmexNT1A, LmexNT1B, and LmexNT2) were ligated into the expression vector pHD1336 ([Biebinger et al., 1997]) and then were linearized with NotI digestion. All genes were verified by Sanger sequencing, prior to transfection into T. b. brucei clone B48. B48 parasites (1 × 10^7 cells) were washed into Human T Cell buffer for transfection using the desired cassette with an Amaxa Nucleofector using program X-001. Cells were transferred into pre-warmed HMI-9 medium and allowed to recover for 8–16 h at 37 °C and 5% CO2. Following recovery, transfectants were grown and cloned in selective medium containing 5 μg ml^−1 blasticidin S using limiting dilution.
as §2
Briefly, cells in the mid-to-late logarithmic stage of growth were harvested by centrifugation for 10 min at 1500×g. […] Radioactivity was determined by liquid scintillation counting in a Beckman LS6000 TA scintillation counter. […]

LdNT1.1 = system: LdNT1.1; set-up: method as in Vasudevan et al., 1998; Landfear, 2001; details: ref Vasudevan et al., 1998; Landfear, 2001; cited from earlier work
LdNT1.2 = system: LdNT1.2; set-up: method as in Vasudevan et al., 1998; Landfear, 2001; details: ref Vasudevan et al., 1998; Landfear, 2001; cited from earlier work
Lmex5FURes = assay type: cell-based, Leishmania mexicana; details: 0.5 μM radiolabel
Procedure, shortened: as §1

LmexUU1 = assay type: cell-based, Leishmania mexicana
Procedure, shortened: as §1

T. b. brucei strain B48 [8] = assay: microbe, parasite or virus in culture; assay type: cell-based; details: Trypanosoma brucei, read-out: inhibition of 0.5 μM [3H]-uridine uptake, 250 μM inhibitor
Experimental: as §2
as §3, with “All experiments were performed in triplicate and on at least three independent occasions.” left out

Lmaj5F2′dURes = assay type: cell-based, Leishmania major; details: 0.25 μM [3H]-uridine, 0.5 μM [3H]-uracil
Experimental: as §2, §3

Lmaj5FURes = assay type: cell-based, Leishmania major; details: 0.5 μM radiolabel
Experimental: as §2, §3

LmajU1 = system: LmajU1; set-up: method as in Papageorgiou et al., 2005; details: ref Papageorgiou et al., 2005; cited from earlier work
[9] = molecular target: P1 adenosine/inosine transporter; set-up: method as in De Koning and Jarvis, 1999; details: ref De Koning and Jarvis, 1999; cited from earlier work
[10] = [3H]-uridine, high affinity component

Q: For `Nc1ncnc2c1ncn2[C@@H]1O[C@H](CO)[C@@H](O)[C@H]1O` [adenosine], which Ki (LmexNT1 [1]) is on record?
A: The Ki was 0.25 ± 0.04 µM.

Q: What about the rate of transport (LmexNT1 [2]; 0.1 μM [3H]-adenosine, linear over at least 30 s) of the same compound?
A: The rate of transport was 0.21 ± 0.01 pmol(10^7 cells)^−1s^−1.

Q: What about the Km (LmexNT1 [2]; [3H]-adenosine) of the same compound?
A: Its Km is 0.81 ± 0.16 µM.

Q: What about the Vmax (LmexNT1 [2]; [3H]-adenosine) of the same compound?
A: The Vmax was 1.11 ± 0.19 pmol(10^7 cells)^−1s^−1.

Q: And the “inhibition of 0.25 μM [3H]-uridine transport” value [3]?
A: Its value is ~100%.

Q: And the “uptake of radiolabel, reduced compared to WT control cells” value (from here on “uptake of radiolabel, reduced”) (Lmex5F2′dURes)?
A: Its value is 89%.

Q: What about the Ki (LmexNT1 [4]) of the same compound?
A: The Ki was 0.39 ± 0.09 µM.

Q: What about the Ki (LmajUUT1) of the same compound?
A: Its Ki is 1.93 ± 0.49 µM.

Q: What about the Ki (LmajNT1 [5]) of the same compound?
A: Its Ki is 1.93 ± 0.49 µM.

Q: What about the Ki (LmajNT1 [6]) of the same compound?
A: Its Ki is 1.77 ± 0.21 µM.

Q: And the Ki (L. major promastigotes; complete inhibition of [3H]-uridine transport (both components))?
A: The Ki was 1.93 ± 0.49 µM.

Q: What about the “inhibition of 50 nM [3H]-inosine transport” value (T. b. brucei strain B48 [7]) of the same compound?
A: Its value is “fully inhibited”.

Q: And the “inhibition of 50 nM [3H]-inosine transport” value (LmajNT2)?
A: Its value is 57%.

Q: And the Km (LdNT1.1)?
A: Its Km is ~0.2 µM.

Q: And the Km (LdNT1.2)?
A: Its Km is ~5 µM.

Q: With `O=c1cc[nH]c(=O)[nH]1` [uracil] as the compound, how does the Ki (LmexNT1 [1]) read?
A: Its Ki is > 2500 µM.

Q: What about the Ki (LmexNT1 [2]) of the same compound?
A: The Ki was > 2500 µM.

Q: What about the “inhibition of 0.25 μM [3H]-uridine transport” value [3] of the same compound?
A: Its value is 48%.

Q: What about the Ki ([3]; read-out: Ki, uracil-sensitive uridine transporter, partial inhibition of 0.25 μM [3H]-uridine uptake, n = 5) of the same compound?
A: Its Ki is 25.7 ± 6.6 µM.

Q: And the “uptake of radiolabel, reduced” value (Lmex5F2′dURes)?
A: Its value is “unaffected”.

Q: What about the “uptake of radiolabel, reduced” value (Lmex5F2′dURes; listed as [^3H]-uracil) of the same compound?
A: The value was “not significantly different”.

Q: And the “uptake of radiolabel, lower than in WT control cells” value (“uptake of radiolabel, lower than” below) (Lmex5FURes)?
A: The value was 90.2%.

Q: And the Ki (LmexNT1 [4])?
A: Its Ki is > 2500 µM.

Q: What about the rate of transport (LmexUU1; 0.25 μM [3H]-uracil, linear to at least 10 min) of the same compound?
A: Its rate of transport is 0.0020 ± 0.0002 pmol(10^7 cells)^−1s^−1.

Q: And the rate of transport (LmexUU1; 0.5 μM [3H]-uracil, linear over 10 min (Fig. 4B legend))?
A: Its rate of transport is 0.0020 ± 0.0002 pmol(10^7 cells)^−1s^−1.

Q: And the rate of transport (LmexUU1; 1 μM [3H]-uracil, linear over 120 s)?
A: The rate of transport was 0.0030 ± 0.0002 pmol(10^7 cells)^−1s^−1.

Q: And the “inhibition of 0.5 μM [3H]-uracil transport” value (LmexUU1; 1 mM unlabeled uracil)?
A: The value was 95%.

Q: What about the Vmax (LmexUU1; [3H]-uracil) of the same compound?
A: The Vmax was 0.088 ± 0.010 pmol(10^7 cells)^−1s^−1.

Q: What about the Km (LmexUU1; [3H]-uracil, 4 min, n = 3) of the same compound?
A: The Km was 29.7 ± 4.4 µM.

Q: What about the Ki (LmajUUT1) of the same compound?
A: Its Ki is 2.65 ± 0.6 µM.

Q: What about the Ki (LmajNT1 [5]) of the same compound?
A: Its Ki is > 1000 µM.

Q: And the Ki (LmajNT1 [6])?
A: Its Ki is > 1000 µM.

Q: And the inhibition at 0.25 µM (L. major promastigotes; Leishmania major, 3 h, read-out: partial (maximal) inhibition of 0.25 μM [3H]-uridine transport)?
A: The inhibition at 0.25 µM was 77.2 ± 2.7%.

Q: What about the inhibition at 250 µM (T. b. brucei strain B48 [8]) of the same compound?
A: The inhibition at 250 µM was 75.7%.

Q: And the “uptake of radiolabel, lower than” value (Lmaj5F2′dURes)?
A: Its value is 80%.

Q: What about the “uptake of radiolabel, lower than” value (Lmaj5F2′dURes; listed as [^3H]-uracil) of the same compound?
A: The value was 81.4%.

Q: And the “uptake of radiolabel, lower than” value (Lmaj5FURes)?
A: The value was 95.7%.

Q: And the Km (LmajU1)?
A: The Km was 0.32 µM.

Q: Which Ki (LmexNT1 [1]) does the source give for `O=c1ccn([C@@H]2O[C@H](CO)[C@@H](O)[C@H]2O)c(=O)[nH]1` [uridine] here?
A: The Ki was 9.1 ± 0.6 µM.

Q: What about the Ki (LmexNT1 [2]) of the same compound?
A: The Ki was 16.8 ± 1.3 µM.

Q: And the Km ([3]; read-out: Km for the uridine flux, total flux, no uracil, n = 5)?
A: The Km was 7.15 ± 0.9 µM.

Q: What about the Vmax (LmexNT1 [4]; [3H]-uridine, in the presence of 1 mM uracil) of the same compound?
A: Its Vmax is 0.74 ± 0.13 pmol(10^7 cells)^−1s^−1.

Q: And the Km (LmexNT1 [4]; [3H]-uridine, measured in the presence of 1 mM uracil)?
A: Its Km is 13.3 ± 2.4 µM.

Q: And the Ki (LmexUU1; inhibition of [3H]-uracil uptake, 4 min)?
A: The Ki was 2 ± 0.5 µM.

Q: And the “maximal inhibition of [3H]-uracil transport” value (LmexUU1; n = 3)?
A: The value was “approximately 85%”.

Q: What about the “Vmax (1)” value (LmajUUT1; [10]) of the same compound?
A: Its value is 0.036 ± 0.004 pmol(10^7 cells)^−1s^−1.

Q: What about the Km (LmajUUT1; [3H]-uridine, high affinity component, listed as [^3H]-uridine) of the same compound?
A: Its Km is 3.12 ± 0.61 µM.

Q: What about the Km (LmajUUT1; [10]) of the same compound?
A: Its Km is 3.1 ± 0.6 µM.

Q: And the “Vmax (2)” value (LmajNT1 [5]; [3H]-uridine, low affinity component)?
A: The value was 0.15 ± 0.04 pmol(10^7 cells)^−1s^−1.

Q: What about the Km (LmajNT1 [5]; [3H]-uridine, low affinity component, n = 3, read-out: Km (2)) of the same compound?
A: Its Km is 33.5 ± 7.3 µM.

Q: What about the Km (L. major promastigotes; n = 3, read-out: apparent Km (single Michaelis-Menten saturation plot)) of the same compound?
A: Its Km is 7.3 ± 1.3 µM.

Q: And the Km (LdNT1.1)?
A: The Km was 5 µM.

Q: What about the Km (LdNT1.2) of the same compound?
A: Its Km is 40 µM.

Q: What about the Ki [9] of the same compound?
A: The Ki was 830 µM.
